For test [1], the system named is DBA mice. As to conditions: cited from earlier work; for seizure-induced respiratory failure and death: DBA mice, dose-dependent.
Test [2] concerns DBA/1 mice. Description: Reversal of FFA's anticonvulsant and S-IRA blocking effects by selective 5-HT receptor antagonists in DBA/1 mice. In kind it is in vivo, mouse. As to the method:
(§1) For these experiments, DBA/1 mice (N=287) were used (after subjecting to the established priming procedure to assure consistent susceptibility to S-IRA following AGSz) to assess the effects of fenfluramine on various 5-HT receptors. Seizures were induced using an electrical bell, and resuscitation was accomplished using a rodent respirator (Faingold et al., 2010). At least 24 hours after priming, the mice received FFA (15 mg/kg, i.p.) and were tested for AGSz and S-IRA susceptibility 16 hours later. Thirty minutes prior to AGSz induction, a selective 5-HT receptor antagonist or vehicle was administered to evaluate if a specific receptor contributes to the ability of FFA to block S-IRA. Seizure behaviors were recorded on videotape, quantified, and compared statistically with vehicle-treated negative and FFA-treated positive controls (Chi-Square Test; significance set at p<0.05).
Specifically, the antagonists tested were: the 5-HT1A antagonist WAY100635 (0.1-15 mg/kg); the 5-HT2 antagonist Ritanserin (10-20 mg/kg); the 5-HT3 antagonist Ondansetron (1-3 mg/kg); the 5-HT4 antagonist GR125487 (20-60 mg/kg); the 5-HT5A antagonist SB669551 (10-20 mg/kg); and the 5-HT7 antagonist SB269970 (30-40 mg/kg). Studies investigating the effect of 5-HT6 and 5-HT1a/1b antagonists are also underway.
as §1, with “mice” for “mice (N=287)”

Setting [3] is: dietary supplementation, DBA/1 mice.

Each structure is given as a SMILES string.

As to `CNCC[C@@H](Oc1ccccc1C)c1ccccc1` [atomoxetine], the “seizure-induced respiratory failure and death” value in test [1] is listed as “prevent”. On to `CC1CCN(CC[C@H]2CCCN2S(=O)(=O)c2cccc(O)c2)CC1` [SB269970], for which, in test [2] (antagonist 30 mg/kg and 40 mg/kg, FFA 15 mg/kg), the “reversal of FFA's anticonvulsant effect against the severity of AGSz” value (“reversal of FFA's anticonvulsant effect” below) is given as “able to reverse”. Turning to `COc1[nH]c2ccc(F)cc2c1C(=O)OCC1CCN(CCNS(C)(=O)=O)CC1` [GR125487], the “reversal of the FFA-induced S-IRA blockade” value in test [2] (antagonist 30 mg/kg, 30 min before AGSz, FFA 15 mg/kg i.p. 16 h before, p<0.05) is on record as “partial reversal”. The “reversal of FFA's anticonvulsant effect” value in test [2] (antagonist 30 and 60 mg/kg, FFA 15 mg/kg) is reported as “able to reverse”. Regarding `COc1ccc(C(CN(C)C)C2(O)CCCCC2)cc1` (centres unmarked) [venlafaxine], the “seizure-induced respiratory failure and death” value in test [1] is listed as “prevent”.

Turning to `CN(C)CCN(Cc1ccc(-c2ccc(CNCCc3ccccc3)cc2)cc1)C(=O)CCC1CCCC1` [SB669551], the “effect on FFA's anticonvulsant effect” value in test [2] (antagonist at 20 mg/kg, FFA 15 mg/kg) is recorded as “blocked”. Take `Cc1nc2sccn2c(=O)c1CCN1CCC(=C(c2ccc(F)cc2)c2ccc(F)cc2)CC1` [Ritanserin]: the “reversal of FFA's anticonvulsant effect” value in test [2] (antagonist 20 mg/kg, FFA 15 mg/kg) is listed as “able to reverse”. As for `Cc1nccn1CC1CCc2c(c3ccccc3n2C)C1=O` (centres unmarked) [Ondansetron], the “reversal of FFA's effect” value in test [2] (antagonist 1-3 mg/kg, FFA 15 mg/kg) is “not effective at any dose tested”.

In the case of `CNCCC(Oc1ccc(C(F)(F)F)cc1)c1ccccc1` (centres unmarked) [fluoxetine], the “seizure-induced respiratory failure and death” value in test [1] is reported as “prevent”. Turning to `COc1ccccc1N1CCN(CCN(C(=O)C2CCCCC2)c2ccccn2)CC1` [WAY100635], the “reversal of FFA's effect” value in test [2] (antagonist 0.1-15 mg/kg, FFA 15 mg/kg) is on record as “not effective at any dose tested”. For the compound `COCCCC/C(=N\OCCN)c1ccc(C(F)(F)F)cc1` [fluvoxamine], in test [1], the “seizure-induced respiratory failure and death” value is “prevent”. Take `CN[C@H]1CC[C@@H](c2ccc(Cl)c(Cl)c2)c2ccccc21` [sertraline]: the “seizure-induced respiratory failure and death” value in test [1] is given as “prevent”.

For `N[C@@H](Cc1c[nH]c2ccc(O)cc12)C(=O)O` [5-hydroxytryptophan], in test [1] (setting [3]), the S-IRA result was “blocked” and the “incidence of AGSz behaviors” value is given as “significantly reduced”.

(Values after patent US11571397B2, “Compositions and methods for treating seizure-induced sudden death” (ZOGENIX INTERNATIONAL LIMITED, priority 2018, dated 2023).)
